Patent US20220233594A1, “TARGETING OTUB1 IN IMMUNOTHERAPY” (Board of Regents, The University ofTexas System, priority 2019, published 2022)

How the values were obtained:
Assay type in all cases: cell-based, mouse
[1] = system: WT or Otub1-TKO naive OT-I CD8 T cells; assay: qRT-PCR analysis of Glut1 and Hk2 expression with AKT inhibitor; conditions: stimulated with anti-CD3 plus anti-CD28; AKTi vs DMSO
Experimental: Real-time quantitative PCR. RNA was extracted with TRIzol reagent from isolated WT OT-I or Otub1-TKO OT-I CD8 T cells. The RNA samples were subjected to quantitative PCR analyses using the SYBR regent (Bio-Rad). The expression of individual genes was calculated by a standard curve method and was normalized to the expression of Actb.

[2] = system: WT or Otub1-TKO naive OT-I CD8 T cells; assay: ELISA of cytokines in culture supernatant with AKT inhibitor; conditions: stimulated with anti-CD3 plus anti-CD28 for 66 h; AKTi vs DMSO
Experimental: T-cell and NK cell purification and in vitro treatments. CD8 and CD4 T cells were isolated from splenocytes with anti-CD8- or anti-CD4-conjugated magnetic beads (Miltenyi), and naive CD8 or CD4 T cells were further purified by FACS sorting to get CD44^loCD62L^hi population. The naive T cells were stimulated in replicate wells of 96-well plates (1×10^5 cells per well) for 66 h, and the culture supernatants were analyzed by ELISA (eBioScience).

[3] = system: WT or Otub1-TKO naive OT-I CD8 T cells; assay: Seahorse analysis of extracellular acidification rate (ECAR) with AKT inhibitor; conditions: activated with anti-CD3 plus anti-CD28 for 24 h; AKTi 3 μM vs DMSO
Experimental: Metabolic assays. OCR and ECAR were measured with an XF96 extracellular flux analyzer (Seahorse Bioscience) following the manufacturer's instruction. Briefly, WT or Otub1-TKO CD8 naive T cells, either freshly isolated or in vitro activated with anti-CD3 plus anti-CD28 (for 24 h), were seeded in XF96 microplates (150,000 cells/well). The plates were quickly centrifuged to immobilize the cells. After incubation in a non-buffered assay medium (Seahorse Biosciences) in a non-CO2 incubator for 30 min, the cells were subjected to glycolysis assays with a XF glycolysis stress test kit (Seahorse Biosciences). Initial measurement of ECAR was done when cells were incubated in a glycolysis stress test medium without glucose to record the baseline. Glucose (10 mM) was then injected to induce ECAR, reflecting glycolysis rate under basal conditions. Subsequently, oligomycin (1 μM) was injected to inhibit mitochondrial ATP production and shift the energy production to glycolysis, thereby measuring the maximum glycolytic capacity (also called stressed ECAR). Finally, a glucose analog, 2-deoxy-glucose (2-DG, 100 mM) was injected to inhibit glycolysis through targeting glucose hexokinase, resulting in decreased ECAR that served as a measure to confirm the glycolysis-dependence of the detected ECAR. […]

O=c1[nH]c2ccccc2n1C1CCN(Cc2ccc(-c3nc4cc5[nH]cnc5cc4nc3-c3ccccc3)cc2)CC1 [AKTi]
Glut1 and Hk2 expression (qRT-PCR) [1]: blocked TCR-CD28-stimulated hyper-expression of the glycolysis-regulatory genes, Glut1 and Hk2 | cytokine production (ELISA, culture supernatant) [2]: blocked | extracellular acidification rate (ECAR) [3]: erased the ECAR differences between WT and Otub1-TKO CD8 T cells
